# Experimental data as given in patent publication US12501899B2, “Mite infestation treatment” (priority 2019, dated 2025).
# Structures can show the parent of a compound that is named as a salt. Where two headings read alike, the source gives them in different places.
# Assays:
# Type in all cases: in vivo
# Ixodes ricinus = experiment: Oral acaricidal test on ticks in membrane feeding wells with treated blood; details: for mortality at 1 ppm / mortality at 10 ppm / mortality at 100 ppm: Ixodes ricinus, po
# Method: A laboratory study was conducted to determine the oral acaricidal properties of three compounds according to the invention (SN0305, SN0306 and SN0307) against Ixodes ricinus. Each compound was tested at 1, 10 and 100 ppm, and compared to a negative control corresponding to solvent alone (0.1% DMSO). Amitraz at 100 ppm was used as a positive control.
# The Ixodes ricinus ticks (nymphs and adults) were placed for 24 hours on a membrane in feeding wells containing blood mixed with the tested compounds. Tick mortality (number of dead, moribund, or unaffected ticks in each well), attachment to the membrane (number of ticks attached/detached in each well), and the behavior (presence or absence of twitches) were examined 1, 3, 6, 12, 24, 48, 72, and 96 hours after the onset of tick exposure to the compounds.
# Ticks (Ixodes ricinus) were collected. Collected adult females were kept separate from the nymphs and both were placed in sterile tubes in a humidity chamber to provide ˜80% humidity and 17° C. Only healthy ticks (females/nymphs) were chosen for the experiment.
# Batches of 12 adults or nymphs were inserted into the feeding wells. After about 24 hours, their attachment was examined with a brush.
# The efficiency of three compounds (SN0305, SN0306 and SN0307), each tested at three concentrations (1, 10, 100 ppm), was compared to the solvent control (0.1% DMSO, Sigma-Aldrich D-5879; Lot 101K0028) and to the positive control (Amitraze at 100 ppm).
# Silicone-coated membranes with a thickness comprised between 110 and 140 μm were used for the construction of the feeding units.
# Feeding units (sterilized acrylic glass tubes) were placed in feeding wells made of sterilized six-well plates.
# 3.1 ml of sterile 10^−3 M ATP-enriched blood was applied to each feeding well. Feeding wells were then inserted into a heated water bath (FIG. 12) and maintained at 37° C.±2° C.
# Stock solutions of 100,000 ppm were prepared and tenth dilutions were carried out in 0.1% DMSO to reach the desired concentrations. After tick attachment (24 hours after placing the ticks in the feeding wells), 3.1 μl of the solutions were added to each feeding well containing 3.1 ml of blood. Blood was changed after 12 hours with fresh supplementation of the compounds to be tested. The ticks were exposed to the product for a total of 24 hours, after which the blood was again changed to fresh, untreated blood.
# Tick mortality (number of dead, moribund or unaffected ticks in each well), attachment (number of attached/detached ticks in each well) and behavior (presence, absence and intensity of convulsions) were examined 1, 3, 6, 12, 24, 48, 72, and 96 hours after the start of tick exposure to the compound.
# Varroa destructor = experiment: Efficiency against Varroa mites in beehives outside the brood (gel application)
# Source text: (§1) 18 hives of bees were divided into 6 groups of 3 homogeneous hives as regards the strength of the colonies (number of bees) and the Varroa infestation.
# The queen of each hive was caged 3 weeks before the application of the tested compounds. The application of the tested compounds was therefore carried out in a situation outside the brood, which allows the forced passage of the Varroa mites from their reproduction phase to their phoresy phase (they are therefore all present on the bees).
# (§2) The tested compounds were applied in the form of a gel three weeks after the queen was caged. The activity of the compounds was studied for a period of 9 days.
# Following these 9 days of treatment, a control treatment with oxalic acid was carried out (duration of treatment equal to 1 week).
# Counts of Varroa mites falling on the floor were carried out at regular time intervals to quantify the number of dead Varroa mites.
# The efficiency of the treatment was calculated by taking the sum of all the dead Varroa mites from D0 to D9 (tested compounds) and dividing it by the sum of all the dead Varroa mites from D0 to D16 (tested compounds+control treatment).
# (§3) The following compounds were tested: • Dexmedetomidine at 55 mg/hive in hydrochloride form, • Dexmedetomidine at 110 mg/hive in hydrochloride form, • Dexmedetomidine at 220 mg/hive in hydrochloride form, • Detomidine at 38.4 mg/hive in hydrochloride form, • Detomidine at 110 mg/hive in hydrochloride form, • Detomidine at 220 mg/hive in hydrochloride form, Results
# bees = experiment: Mortality of adult bees in treated beehives (dead bee traps); details: 55, 110, 220 mg/hive
# Method: as §1, §2
# For this purpose, dead bee traps disposed in front of the hives were used.
# as §3
smiles,measurement,setting,value
"Cc1cccc([C@H](C)c2c[nH]cn2)c1C [Dexmedetomidine hydrochloride, (S)-4-[1-(2,3-dimethylphenyl)-ethyl]-1H-imidazole]",effect in terms of tick detachment (in words),"Ixodes ricinus; 1, 10, 100 ppm, nymphs and adults",very limited effect
same,detached nymphs in a replica,"Ixodes ricinus; 1 ppm, nymphs",1
same,detached adult ticks in a replica,"Ixodes ricinus; 100 ppm, adult ticks",1
same,mortality at 1 ppm,"Ixodes ricinus; adult ticks, 1 ppm, 1 h, read-out: average percentage of adult tick mortality (moribund or dead adult ticks)",0%
same,mortality at 1 ppm,"Ixodes ricinus; adult ticks, 1 ppm, 3 h, read-out: average percentage of adult tick mortality (moribund or dead adult ticks)",0%
same,mortality at 1 ppm,"Ixodes ricinus; adult ticks, 1 ppm, 6 h, read-out: average percentage of adult tick mortality (moribund or dead adult ticks)",3.1%
same,mortality at 1 ppm,"Ixodes ricinus; adult ticks, 1 ppm, 12 h, read-out: average percentage of adult tick mortality (moribund or dead adult ticks)",3.1%
same,mortality at 1 ppm,"Ixodes ricinus; adult ticks, 1 ppm, 24 h, read-out: average percentage of adult tick mortality (moribund or dead adult ticks)",64.2%
same,mortality at 1 ppm,"Ixodes ricinus; adult ticks, 1 ppm, 48 h, read-out: average percentage of adult tick mortality (moribund or dead adult ticks)",88.2%
same,mortality at 1 ppm,"Ixodes ricinus; adult ticks, 1 ppm, 72 h, read-out: average percentage of adult tick mortality (moribund or dead adult ticks)",100%
same,mortality at 1 ppm,"Ixodes ricinus; adult ticks, 1 ppm, 96 h, read-out: average percentage of adult tick mortality (moribund or dead adult ticks)",100%
same,mortality at 10 ppm,"Ixodes ricinus; adult ticks, 1 h, read-out: average percentage of adult tick mortality (moribund or dead adult ticks)",0%
same,mortality at 10 ppm,"Ixodes ricinus; adult ticks, 3 h, read-out: average percentage of adult tick mortality (moribund or dead adult ticks)",0%
same,mortality at 10 ppm,"Ixodes ricinus; adult ticks, 6 h, read-out: average percentage of adult tick mortality (moribund or dead adult ticks)",5.6%
same,mortality at 10 ppm,"Ixodes ricinus; adult ticks, 12 h, read-out: average percentage of adult tick mortality (moribund or dead adult ticks)",11.1%
same,mortality at 10 ppm,"Ixodes ricinus; adult ticks, 24 h, read-out: average percentage of adult tick mortality (moribund or dead adult ticks)",57.3%
same,mortality at 10 ppm,"Ixodes ricinus; adult ticks, 48 h, read-out: average percentage of adult tick mortality (moribund or dead adult ticks)",79.5%
same,mortality at 10 ppm,"Ixodes ricinus; adult ticks, 72 h, read-out: average percentage of adult tick mortality (moribund or dead adult ticks)",96.9%
same,mortality at 10 ppm,"Ixodes ricinus; adult ticks, 96 h, read-out: average percentage of adult tick mortality (moribund or dead adult ticks)",100%
same,mortality at 100 ppm,"Ixodes ricinus; adult ticks, 100 ppm, 1 h, read-out: average percentage of adult tick mortality (moribund or dead adult ticks)",0%
same,mortality at 100 ppm,"Ixodes ricinus; adult ticks, 100 ppm, 3 h, read-out: average percentage of adult tick mortality (moribund or dead adult ticks)",0%
same,mortality at 100 ppm,"Ixodes ricinus; adult ticks, 100 ppm, 6 h, read-out: average percentage of adult tick mortality (moribund or dead adult ticks)",5.9%
same,mortality at 100 ppm,"Ixodes ricinus; adult ticks, 100 ppm, 12 h, read-out: average percentage of adult tick mortality (moribund or dead adult ticks)",11.8%
same,mortality at 100 ppm,"Ixodes ricinus; adult ticks, 100 ppm, 24 h, read-out: average percentage of adult tick mortality (moribund or dead adult ticks)",63.9%
same,mortality at 100 ppm,"Ixodes ricinus; adult ticks, 100 ppm, 48 h, read-out: average percentage of adult tick mortality (moribund or dead adult ticks)",76.4%
same,mortality at 100 ppm,"Ixodes ricinus; adult ticks, 100 ppm, 72 h, read-out: average percentage of adult tick mortality (moribund or dead adult ticks)",91.3%
same,mortality at 100 ppm,"Ixodes ricinus; adult ticks, 100 ppm, 96 h, read-out: average percentage of adult tick mortality (moribund or dead adult ticks)",100%
same,mortality at 1 ppm,"Ixodes ricinus; nymphs, 1 ppm, 1 h, read-out: average percentage of mortality of tick nymphs (moribund or dead nymphs)",0%
same,mortality at 1 ppm,"Ixodes ricinus; nymphs, 1 ppm, 3 h, read-out: average percentage of mortality of tick nymphs (moribund or dead nymphs)",0%
same,mortality at 1 ppm,"Ixodes ricinus; nymphs, 1 ppm, 6 h, read-out: average percentage of mortality of tick nymphs (moribund or dead nymphs)",13.8%
same,mortality at 1 ppm,"Ixodes ricinus; nymphs, 1 ppm, 12 h, read-out: average percentage of mortality of tick nymphs (moribund or dead nymphs)",31.3%
same,mortality at 1 ppm,"Ixodes ricinus; nymphs, 1 ppm, 24 h, read-out: average percentage of mortality of tick nymphs (moribund or dead nymphs)",58.9%
same,mortality at 1 ppm,"Ixodes ricinus; nymphs, 1 ppm, 48 h, read-out: average percentage of mortality of tick nymphs (moribund or dead nymphs)",85.7%
same,mortality at 1 ppm,"Ixodes ricinus; nymphs, 1 ppm, 72 h, read-out: average percentage of mortality of tick nymphs (moribund or dead nymphs)",100%
same,mortality at 1 ppm,"Ixodes ricinus; nymphs, 1 ppm, 96 h, read-out: average percentage of mortality of tick nymphs (moribund or dead nymphs)",100%
same,mortality at 10 ppm,"Ixodes ricinus; nymphs, 1 h, read-out: average percentage of mortality of tick nymphs (moribund or dead nymphs)",0%
same,mortality at 10 ppm,"Ixodes ricinus; nymphs, 3 h, read-out: average percentage of mortality of tick nymphs (moribund or dead nymphs)",9.2%
same,mortality at 10 ppm,"Ixodes ricinus; nymphs, 6 h, read-out: average percentage of mortality of tick nymphs (moribund or dead nymphs)",24.9%
same,mortality at 10 ppm,"Ixodes ricinus; nymphs, 12 h, read-out: average percentage of mortality of tick nymphs (moribund or dead nymphs)",48.3%
same,mortality at 10 ppm,"Ixodes ricinus; nymphs, 24 h, read-out: average percentage of mortality of tick nymphs (moribund or dead nymphs)",83%
same,mortality at 10 ppm,"Ixodes ricinus; nymphs, 48 h, read-out: average percentage of mortality of tick nymphs (moribund or dead nymphs)",96.9%
same,mortality at 10 ppm,"Ixodes ricinus; nymphs, 72 h, read-out: average percentage of mortality of tick nymphs (moribund or dead nymphs)",100%
same,mortality at 10 ppm,"Ixodes ricinus; nymphs, 96 h, read-out: average percentage of mortality of tick nymphs (moribund or dead nymphs)",100%
same,mortality at 100 ppm,"Ixodes ricinus; nymphs, 100 ppm, 1 h, read-out: average percentage of mortality of tick nymphs (moribund or dead nymphs)",0%
same,mortality at 100 ppm,"Ixodes ricinus; nymphs, 100 ppm, 3 h, read-out: average percentage of mortality of tick nymphs (moribund or dead nymphs)",13.3%
same,mortality at 100 ppm,"Ixodes ricinus; nymphs, 100 ppm, 6 h, read-out: average percentage of mortality of tick nymphs (moribund or dead nymphs)",33%
same,mortality at 100 ppm,"Ixodes ricinus; nymphs, 100 ppm, 12 h, read-out: average percentage of mortality of tick nymphs (moribund or dead nymphs)",59%
same,mortality at 100 ppm,"Ixodes ricinus; nymphs, 100 ppm, 24 h, read-out: average percentage of mortality of tick nymphs (moribund or dead nymphs)",92.9%
same,mortality at 100 ppm,"Ixodes ricinus; nymphs, 100 ppm, 48 h, read-out: average percentage of mortality of tick nymphs (moribund or dead nymphs)",100%
same,mortality at 100 ppm,"Ixodes ricinus; nymphs, 100 ppm, 72 h, read-out: average percentage of mortality of tick nymphs (moribund or dead nymphs)",100%
same,mortality at 100 ppm,"Ixodes ricinus; nymphs, 100 ppm, 96 h, read-out: average percentage of mortality of tick nymphs (moribund or dead nymphs)",100%
same,"ticks affected (convulsion, morbidity or death of ticks)","Ixodes ricinus; from 1 hour of exposure, regardless of the concentration tested (1, 10, 100 ppm)",100%
same,total efficiency against Varroa mites (dead Varroa D0 to D9 / dead Varroa D0 to D16),"Varroa destructor; 220 mg/hive, gel, 9 days, outside the brood",94.5%
same,dose dependence of efficiency against Varroa mites (in words),"Varroa destructor; 55, 110, 220 mg/hive",dose effect
same,bee mortality in the hive (in words),bees,no increase in bee mortality
